Assay results from patent US20070218030A1, “Dietetic Preparation for Prevention and Treatment of Osteoporosis” (priority 2003, published 2007).

System: ovarectomised female rats
Assay: experimental osteoporosis in ovarectomised female rats, oral administration
Type: in vivo
Settings: for symptoms of osteoporosis: female rats after surgically removed ovaries, administered orally, not yet published experimental results
Protocol: An experiment was carried out on ovarectomised female rats in which an experimental osteoporosis was induced.

[1] = ovarectomised female rats with induced experimental osteoporosis, oral, molecular weight over 500 000 g/mol, dosage 150 to 4500 μg/kg

Row | Substance | symptoms of osteoporosis | bone density [1] | excretion of the metabolite of bone matrix breakdown into urine [1]
1 | calcium hyaluronate | able to suppress symptoms of osteoporosis | – | –
2 | sodium hyaluronate | able to suppress symptoms of osteoporosis | normalisation of bone density | returned to normal
